Measurements: patent publication US12171764B2, “Treatment of a disease of the gastrointestinal tract with a JAK or other kinase inhibitor” (BIORA THERAPEUTICS, INC., priority 2018, dated 2024)
Like-named read-outs stand apart in the source and are kept apart here.

Assays:
[1] = Example 10: tacrolimus in GI tissue, luminal content and rectal content, oral vs intra-cecal ingestible device delivery; assay type: in vivo, Yorkshire-Cross farm swine; settings: FIG. 92
Procedure: (§1) The primary objective of this study was to compare the tissue, plasma, rectal sample, and GI content pharmacokinetics of tacrolimus through oral versus intra-cecal ingestible device delivery in normal Yorkshire-Cross farm swine.
Animals in Group 1 received an ingestible device containing 0.8 mL of vehicle solution (80% alcohol, 20% HCO-60). Animals in Group 2 received orally […] liquid formulation of tacrolimus at 4 mg/0.8 mL per animal (Prograf: 5 mg/mL). Animals in Group 3 received intra-cecally an ingestible device containing tacrolimus at 1 mg in 0.8 mL per ingestible device. […]
Approximately 200˜400 mg of rectal content were collected, if available, with a fecal swab (Copan Diagnostics Nylon Flocked Dry Swabs, 502CS01). The fecal swab was pre-weighed and weighed after collection in the collection tube (Sterile Tube and Cap No Media, PFPM913S), and the sample weight was recorded. […]
For tissue necropsy, small intestine fluid and cecal fluid were collected separately from all the animals into two separate square plastic bottles, and stored at −20° C. The length and diameter of the cecum and the colon was measured from one animal in each group and recorded for reference. […] All samples were weighed, and the tissue sample weights were recorded. […] Around 3 grams of the total punched sample were collected into a pre-weighed 15-mL conical tube, and the tissue weight was recorded. […]

[2] = Example 10: tacrolimus blood/plasma pharmacokinetics, oral vs intra-cecal ingestible device delivery; assay type: in vivo, Yorkshire-Cross farm swine
Procedure: as §1
(§2) No further randomization procedure was employed.
Animals in Group 1 received an ingestible device containing 0.8 mL of vehicle solution (80% alcohol, 20% HCO-60). Animals in Group 2 received orally […] liquid formulation of tacrolimus at 4 mg/0.8 mL per animal (Prograf: 5 mg/mL). Animals in Group 3 received intra-cecally an ingestible device containing tacrolimus at 1 mg in 0.8 mL per ingestible device. Animals in Group 4 received intra-cecally an ingestible device containing tacrolimus at 2 mg in 0.8 mL per ingestible device. Animals in Group 5 received intra-cecally an ingestible device containing tacrolimus at 4 mg in 0.8 mL per ingestible device. To control for potential confounding effects of the surgery, all groups fast on Day −11 at least 24 hr before being subjected to anesthesia followed by surgical placements of a cecal port by a veterinary surgeon at Day −10. All animals were fasted for at least 12 hr prior to dosing on Day 1. Animals were dosed via either intra-cecal dosing (IC) or oral dosing (PO) at Day 1 (between 6-8 p.m.). All animals resumed feeding at approximately 4 hours after dose (11-12 p.m. after dosing).
Approximately 200˜400 mg of rectal content were collected, if available, with a fecal swab (Copan Diagnostics Nylon Flocked Dry Swabs, 502CS01). The fecal swab was pre-weighed and weighed after collection in the collection tube (Sterile Tube and Cap No Media, PFPM913S), and the sample weight was recorded. The fecal swab was broken via the breakpoint, and was stored in the collection tube, and immediately frozen at −70° C. […] Immediately following euthanasia, tissue was collected.
[…] Plasma, rectal content sample, tissue collection, GI content collection and related procedures/storage/shipments was the same as those employed in Group 1.
Group 3 animals were administered a single intra-cecal ingestible device containing tacrolimus at 1-mg/0.8 mL (0.02 mg/kg) (in the vehicle solution) on Day 1 by a veterinary surgeon. […] All samples were analyzed for tacrolimus.
Group 4 animals were administered a single intra-cecal ingestible device of tacrolimus at 2 mg/0.8 mL (0.04 mg/kg) (in sterile vehicle solution) on Day 1 by a veterinary surgeon. […] All samples were analyzed for tacrolimus.
Group 5 animals are administered a single intra-cecal ingestible device containing tacrolimus at 4 mg/0.8 mL (0.08 mg/kg) (in the vehicle solution) on Day 1 by a veterinary surgeon. […] All samples were analyzed for tacrolimus. […]

[3] = Example 13: tacrolimus blood pharmacokinetics, oral vs intra-cecal administration; assay type: in vivo, Yorkshire-Cross farm swine; settings: swine
Excerpt: as §2

[4] = tested on: IL-6, GM-CSF, IL-15, IL-2, IL-12, IL-13, TNF-α, and INF-γ; assay: Tofacitinib pharmacodynamics: JAK/STAT pathway cytokines in plasma and colon tissue by ELISA in DSS-induced colitis mice; assay type: in vivo, male C57BL/6 mice
[5] = animals treated IC (Groups 5-6); FIG. 110
Procedure: Briefly, samples were analyzed by LC-MS/MS against matrix-matched standard curves.

[6] = C57BL/6, mouse, in vivo, po, 15 mg/kg
[7] = C57BL/6, mouse, in vivo, 10 mg/kg

For C=CC[C@@H]1/C=C(\C)C[C@H](C)C[C@H](OC)[C@H]2O[C@@](O)(C(=O)C(=O)N3CCCC[C@H]3C(=O)O[C@H](/C(C)=C/[C@@H]3CC[C@@H](O)[C@H](OC)C3)[C@H](C)[C@@H](O)CC1=O)[C@H](C)C[C@@H]2OC [tacrolimus], the “rectal content concentration at 12 hours post-treatment” value ([1]; IC capsule groups) was “higher rectal content concentration”, the “rectal content concentration at 12 hours post-treatment” value ([1]; PO group) was “no detectable level” and the Tmax ([2]; Route IC, Dose 0.02 (mg · kg)) was 1. The Cmax ([2]; Route IC, Dose 0.04 (mg · kg)) was 9.197 ± 3.30 ng/mL, the “AUC 0-12 hr” value ([2]; Route PO, Dose 0.09 (mg · kg)) was 16.83 ± 3.641 ng·h/mL and the Tmax ([2]; Route PO, Dose 0.09 (mg · kg)) was 1. The “Trough (12 hr)” value ([3]; IC 0.02 mg/kg (Group 3)) was 0.746 ng/mL, the Cmax ([3]; IC 0.04 mg/kg) was 9.197 ± 3.30 ng/mL and the “Trough (12 hr)” value ([3]; IC 0.04 mg/kg (Group 4)) was 1.96 ng/mL. For the same compound, the “Trough (12 hr)” value ([3]; IC 0.09 mg/kg (Group 5)) was 4.35 ng/mL, the Cmax ([3]; PO 0.09 mg/kg) was 3.53 ± 3.84 ng/mL and the “Trough (12 hr)” value ([3]; PO 0.09 mg/kg (Group 2), 0.09 mg/kg) was 0.568 ng/mL.

For C[C@@H]1CCN(C(=O)CC#N)C[C@@H]1N(C)c1ncnc2[nH]ccc12.O=C(O)CC(O)(CC(=O)O)C(=O)O [tofacitinib citrate], the “IL-6 expression in plasma” value ([4]; PO or IC administration, 1 h and 3 h post-treatment (data not shown)) was “inhibition of IL-6 expression was observed”, the “IL-6 expression in colon tissue” value ([4]; all IC treated groups and the high dose PO group (45 mg/kg), FIG. 112B) was “inhibition of IL-6 expression was sustained through 24 h post-dose” and the “IL-6 expression in colon tissue” value ([4]; low dose PO group (15 mg/kg) by 12 h post-dose) was “Recovery from IL-6 inhibition was observed”. For the same compound, the blood exposure [5] was “limited blood exposure”.

With C[C@@H]1CCN(C(=O)CC#N)C[C@@H]1N(C)c1ncnc2[nH]ccc12 [tofacitinib, 3-[(3R,4R)-4-methyl-3-[methyl(7H-pyrrolo[2,3-d]pyrimidin-4-yl)amino]piperidin-1-yl]-3-oxopropanenitrile] the T1/2 [6] was 2.53 h, the “GM-CSF levels in plasma or colon tissue” value ([4]; IC vs PO treatment groups (data not shown)) was “nor was there a significant difference in GM-CSF levels” and the T1/2 [7] was 2.16 h.
